Consider 4 compounds from US20130345073A1, “USE OF ALPHA-2-MACROGLOBULIN FOR DETERMINING OSTEONECROSIS DISEASE STATUS AND FOR SCREENING THERAPEUTIC AGENTS FOR PREVENTING OR TREATING OSTEONECROSIS” (priority 2012, published 2013).

Each structure is given as a SMILES string. Like-named read-outs stand apart in the source and are kept apart here.

In series [1] the test system is A2M gene expression in human umbilical vein endothelial cells (HUVEC). The series is described as follows: A2M gene expression in treated HUVEC cells (qPCR). As to conditions: for effect on A2M overexpression induced by dexamethasone: combined with dexamethasone, PD98059 20 μM, withaferin 1 μM (FIG. 4D). The class given is cell-based. For orientation: Quantitative PCR measures a nucleic acid by following its amplification.
Source text: HUVECs were purchased from Lonza (Walkersville, Md., USA) and cultured in endothelial basal medium (EBM-2media (Lonza) supplemented with microvascular additives (excluding hydrocortisone): human endothelial growth factor, 5% fetal bovine serum (FBS), vascular endothelial growth factor, human fibroblast growth factor type B, R3 insulin-like growth factor 1, ascorbic acid, heparin and the appropriate antibiotics gentamicin and amphotericin B (as per the supplier's protocol). HUVECs cells were cultured to near confluence (80%), trypsinized and seeded on 6 wells plates (10^5 cells/well). After 24 h incubation, cells were treated with dexamethasone (0.25 to 1 mM, Sigma-Aldrich, St-Louis, Mo., USA) for different time periods (between 4h to 48h). For experiments relating to the signaling pathways, different inhibitors were used: PD98059 (20 μM, Sigma) a MAPK inhibitor; withaferin (1 μM, Tocris, Bristol, UK), an NFkB PI3K inhibitor, and thrombin (1.5 U/ml; Calbiochem, San Diego, Calif., USA) an NFkB agonist. After incubation cells were harvested and RNA extracted using Trisol® (Invitrogen, Burlington, ON, Canada). RNA were then reverse transcribed using high capacity RNA to cDNA kit (Applied biosystems, Carlsbad, Calif., USA). A2M expression levels were then determined by qPCR using Taqman probes and master mix (Applied Biosystems)
First, a dose response curve of HUVEC cells treated 48h using different concentration of Dex (dexamethasone) (0.1 mM to 1 mM) was generated. […] Then, a time response curve (4h to 24h) of HUVEC cells treated with 1 mM dexamethasone was generated. […] The effect of dexamethasone, PD and whitaferin on A2M expression of HUVEC cells was also determined.

Series [2] relates to Fisher and Wistar Kyoto (WK) rats. The series is described as follows: Alpha-2-Macroglobulin (A2M) level in the blood by rat A2M ELISA. Type of series: in vivo. An excerpt:
Slow-release prednisone pellets (Innovative Research of America, Sarasota Florida, USA) were implanted subcutaneously into 12 Wistar Kyoto rats (all males) and 12 Fisher rats (all males) at the age of 8-12 weeks. Each pellet was implanted underneath the skin on the lateral side of the neck by surgically making an incision and developing a pocket about 2 cm beyond the incision site. The pellet was placed in the pocket and the incision was sutured. Based on the manufacturer's instructions the pellet releases a constant dose of the drug subcutaneously. To maintain a constant dosage during the 6 month period of the experiment, second and third pellet implantations were performed using the same procedure at 2 and 3 months respectively. The average dose release from the pellet was equivalent to 1.5 mg/kg/day for the period of 6 months. The dose of corticosteroids and the duration of treatment were chosen based on clinical experience. For the control group, 6 age-matched Wistar Kyoto (all males) and 6 age-matched Fisher (all males) rats received placebo pellets (Innovative Research of America) introduced through the same surgical technique. All rats were weighed upon their entry into the animal facility and were then weighed on a weekly basis until the end of the experimental period. Serum glucose measurements were performed at 2 week intervals via saphenous venipuncture using a portable glucometer (ContourTM glucometer, Bayer). Furthermore, 1 ml of whole blood was collected from each animal once a month via sublingual venipuncture under general anesthesia following a previously described technique. Following venipuncture, the blood was transferred to standard EDTA tubes, centrifuged for 8 minutes at 3600 rpm and the serum was separated and initially stored at -20° Celsius. Monthly serum […] concentrations were determined using a Rat Alpha 2-Marcoglobulin Enzyme Linked Immunoassay (ELISA) (Kamiya Biomedical Company, Seattle, USA) according to the manufacturer's instructions. This measurement was performed by an author blinded to treatment allocation. Fisher and Wistar Kyoto (WK) rats received steroid/placebo treatment for 5 and 6 months, respectively and blood was collected monthly. The Alpha-2-Macroglobulin […]) level in the blood was detected using rat […] ELISA kit (Immunology Consultants Laboratory, USA). Rats were divided into groups based on the treatment as well as the results from histopathology and TUNEL evaluation. AVN(+) was judged to be either TUNEL (+) or (++), or AVN(-) by histopathology study on at least one hip. […] However, as shown on FIG. 3C, the […] level in the blood of steroid-treated Fisher rats (only those considered AVN(+)) increased at 2 months after steroid treatment, and they were consider AVN(+). […]

The test system is the same in series [3]. As to conditions: male, rat, in vivo, 5 months.
Another series deals with Fisher and WK rats. The series is described as follows: Micro-computerized tomography scanning of femoral head cross-sections. The class given is in vivo, rat. The method, then:
At the conclusion of the 180 day experimental period, all prednisone and placebo animals were euthanized via brief isoflurane exposure followed by cardiac puncture. Immediately following euthanasia, both femurs in each animal were dissected, with care taken to preserve the integrity of the femoral cartilage during hip disarticulation. The femurs were then osteotomized at the mid-diaphysis and the proximal portion was immersed initially in 4% paraformaldehyde for 24 hours, washed with sterile phosphate buffered saline (PBS) for the following 48 hours, and then preserved in PBS at −5° Celsius.
Micro computed-tomography (μCT) scanning was performed on each harvested femur using a Skyscan1172 instrument equipped with a 1.3 Mp camera (Skyscan, Kontich, Belgium). […] 2-dimensional serial cross sections were assembled into 3D reconstructions and analyzed using Skyscan™ software (CTAn version 2.0.0.1) supplied with the instrument. […]
In the present example, an analysis of the epiphyseal trabecular bone adjacent to the subchondral plate was performed. […] This shape permitted the largest area of epiphyseal bone to be measured without artefact from the adjacent rodent growth plate or cortical cap. […]
Four widely utilized morphometric indices measuring bone volume and bone connectivity were measured from the binarized 3-dimensional volume of interest. […] Total bone porosity (TBP) was also measured. […]

For another series, the system named is Wistar Kyoto rats. To be noted: male, rat, in vivo, 6 months. The method, then:
(§1) Experimental animals and their maintenance. Forty Wistar Kyoto (WKY) rats (ages 4 weeks old) were purchased from Charles River Laboratories (Pointe-Claire, QC, Canada). The rats were tagged and housed in plastic cages (2 to 4 animals per cage) under standard laboratory conditions with a 12-hour dark/12-hour light cycle, a constant temperature of 20° C., and humidity of 48%. Food and water were provided ad libitum with a standard rodent diet. The weight of the rats were followed before and after the implant of a prednisone pellet for the first 3 consecutive weeks and then every month until the end of the experiment. All experiments were conducted under an animal protocol approved by the McGill Animal Care Department.
Slow-release prednisone pellets (Innovative Research of America, Sarasota Florida, USA) were implanted subcutaneously into 24 Wistar Kyoto rats (12 males and 12 females rats) at the age of 5 weeks. […]
The rats were sacrificed with an overdose of ketamine/xylazine at the age of 30 weeks. […] Tissue samples were sectioned parasagitally with a rotary microtome at 4 to 5 microns thickness, stained with hematoxylin and eosin and evaluated by light microscopy.
The tissue samples were analyzed in a blinded fashion by two experienced bone pathologists. […]

Series [4] deals with Fisher and Wistar Kyoto (WK) rats. As to conditions: rat, in vivo. The method, then: as §1, with “Eighteen Wistar” for “Experimental animals and their maintenance. Forty Wistar”, “(ages 12-16 weeks old) and eighteen Fisher (ages 12-16” for “(ages 4”
Slow-release prednisone pellets (Innovative Research of America, Sarasota Florida, USA) were implanted subcutaneously into 12 Wistar Kyoto rats (all males) and 12 Fisher rats (all males) at the age of 8-12 weeks. Each pellet was implanted underneath the skin on the lateral side of the neck by surgically making an incision and developing a pocket about 2 cm beyond the incision site. The pellet was placed in the pocket and the incision was sutured. Based on the manufacturer's instructions the pellet releases a constant dose of the drug subcutaneously. To maintain a constant dosage during the 6 month period of the experiment, second and third pellet implantations were performed using the same procedure at 2 and 3 months respectively. The average dose release from the pellet was equivalent to 1.5 mg/kg/day for the period of 6 months. The dose of corticosteroids and the duration of treatment were chosen based on clinical experience. For the control group, 6 age-matched Wistar Kyoto (all males) and 6 age-matched Fisher (all males) rats received placebo pellets (Innovative Research of America) introduced through the same surgical technique.
The rats were sacrificed with an overdose of ketamine/xylazine at the age of 32-36 weeks. Tissue samples were obtained from the proximal femur containing the femoral head. Some samples were put in RNALater™ (QIAGEN Inc., Mississauga, ON, Canada) for RNA extraction and some samples were fixed for histological examination. Bone samples were fixed in 10% neutral buffered formalin, then decalcified in 4% ethylenediamine tetraacetic acid (pH 7.2) (Sigma-Aldrich, St. Louis, Mo., USA). The specimens were processed routinely and embedded in paraffin. Tissue samples were sectioned parasagitally with a rotary microtome at 4 to 5 microns thickness, stained with hematoxylin and eosin and evaluated by light microscopy.
The tissue samples were analyzed in a blinded fashion by two experienced bone pathologists. […] While the development of ON proceeds through various clinically identifiable stages, it was preferable for this study to detect early as well as the late stages of the condition. With this objective in mind, the criteria of Arlet [Arlet, 1993] was adopted namely degeneration, necrosis, and disappearance of marrow cells as well as the nuclear disappearance and hypochromasia of trabecular osteocytes as early signs of ON [Arlet, 1993]. Early signs of ON was also considered when apoptosis occurred in the osteocytes and osteoblasts. Positivity for apoptosis was defined by the authors as more than three osteocytes and/or osteoblasts recognized in a high magnification field based on previous studies [Weinstein et al, 2000; Shibahara et al., 2000].
Terminal dexoynucleotidyl transferase (TdT) mediated deoxyuridine triphosphate biotin nick end labeling (TUNEL) was used to detect fragmented DNA known to be associated with apoptotic cell death. TUNEL assay on paraffin-embedded tissue sections was performed with the DeadEnd™ Colorimetric TUNEL System (Promega, Madison, Wis., USA) as recommended by the manufacturer. […]

`COc1cccc(-c2cc(=O)c3ccccc3o2)c1N` [PD, PD98059]: the “effect on A2M overexpression induced by dexamethasone” value in series [1] (HUVEC) was “repression of A2M gene expression”.

In the case of `C[C@]12C=CC(=O)C=C1CC[C@@H]1[C@@H]2C(=O)C[C@@]2(C)[C@H]1CC[C@]2(O)C(=O)CO` [Prednisone, prednisone], in series [2] (Fisher rats, 5 months after the beginning of the steroid treatment (FIG. 3E)), the “A2M level in the blood” value is recorded as “declined”. Also, the “A2M level in the blood” value in series [2] (steroid-treated Fisher rats AVN(+), at 2 months after steroid treatment (FIG. 3C)) was “increased”. The “time of peak A2M level in the blood after the beginning of the treatment” value in series [2] (steroid-treated WK rats, all AVN(+) (FIG. 3D)) is 3 month. The “A2M level in the blood” value in series [2] (steroid-treated WK rats, at least 6 months after the beginning of the treatment (FIG. 3E)) is on record as “remained higher than placebo-treated group”. In series [3], the “Total TUNEL(++) hips” value was determined as 7, the “Total TUNEL(−) hips” value is listed as 2 and the “number of hips AVN(+) TUNEL(−)” value is listed as 1. In the series with Fisher and WK rats (Fisher rats following steroid administration (FIG. 5A)), the “micro-CT findings of femoral head” value is recorded as “no articular erosion”. Further, in the series on Fisher and WK rats (steroid-treated WK rats (FIG. 5B)), the “rats with subchondral porosity, small and erratic trabeculae and isotropic trabecular arrangement” value is 9 out of 12. Moreover, the “incidence of the disease (ON)” value in the series with Wistar Kyoto rats is “up to 75%”. Further, in series [4] (male, Wistar Kyoto, 6 months), the “Total TUNEL(++) hips” value is given as 9, the “Total TUNEL(−) hips” value amounted to 1, the “number of hips AVN(+) TUNEL(−)” value turned out to be 1 and the “number of hips AVN(−) TUNEL(+)” value was determined as 1. Besides, the “number of hips AVN(−) TUNEL(++)” value in series [4] (male, Wistar Kyoto, 6 months) came to 2. In addition, the “apoptosis (TUNEL positive cells) in bilateral femora” value in series [4] is listed as “more profound”.

In the case of `C[C@@H]1C[C@H]2[C@@H]3CCC4=CC(=O)C=C[C@]4(C)[C@@]3(F)[C@@H](O)C[C@]2(C)[C@@]1(O)C(=O)CO` [dexamethasone], the “concentration of maximum effect on A2M expression” value in series [1] (HUVEC treated 48h, dose response 0.1 mM to 1 mM (FIG. 4A)) was 0.5 mM. The “time of maximum effect on A2M expression” value in series [1] (HUVEC, 1 mM dexamethasone, time response 4h to 24h (FIG. 4B)) came out at 24 h.

`CC1=C(CO)C(=O)O[C@@H]([C@@H](C)[C@H]2CC[C@H]3[C@@H]4C[C@H]5O[C@]56[C@@H](O)C=CC(=O)[C@]6(C)[C@H]4CC[C@]23C)C1` [whitaferin, withaferin]: in series [1] (HUVEC), the “effect on A2M overexpression induced by dexamethasone” value was “repression of A2M gene expression”.
